The nature of the data set: gradient 5% acetonitrile 3 min, to 50% in 2 min, to 85% in 15 min, held 3 min, 100 µL/min. The settings on record: column: Zorbax Extend-C18 2.1 x 50 mm; eluents: water / acetonitrile, 0.1% formic acid. In a few lines: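 Retention time was recorded from adduct peaks, which were picked computationally and each inspected manually. Pure standards ran in mixtures of ~100 molecules on HPLC coupled to a quadrupole time-of-flight mass spectrometer, in positive and negative ionization mode, through a Zorbax Extend-C18 column (2.1 × 50 mm, 1.8 μm) at 100 μL/min. Eluents were water and acetonitrile, each with 0.1% formic acid.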
As to `CC1CCCN(CC2CCN(S(=O)(=O)c3cc(F)cc(F)c3)CC2)C1` (stereo not given), the RP-LC retention time was 681 s.

In turn, `O=C1NCCCn2cc(S(=O)(=O)Nc3ccc(F)cc3Cl)cc21` displayed an RP-LC retention time of 650 s. Regarding `CCCN1CCN(c2ncnc3sc(C(=O)NCCCN4CCCC4)c(C)c23)CC1`, the RP-LC retention time stood at 583 s. The result for `CCOc1ccc(-c2nc(C3CC(=O)N(c4ccc(OC)cc4)C3)no2)cc1OCC` (stereo not given) reads 927 s; that for `O=C(Cn1cc(-c2ccccc2)c2ncnc(N3CCOCC3)c21)NC1CCCC1`, 717 s; that for `Cc1ccc2nc(-c3ccccc3)c(Nc3ccccc3C)n2c1`, 726 s. On to `CCOC(=O)c1nc(NCc2cccc(Cl)c2)c2ccccc2n1`, for which the RP-LC retention time is 833 s. Next, `CCOC(=O)c1cc[nH]c1CC(=O)NC`: 672 s. Next, `Cc1sc(-c2nc(C(C)C)cs2)cc1S(=O)(=O)NC1CCCC1`: 1240 s; `CCOC(=O)c1cnc2nc(C)ccc2c1Nc1ccc(F)cc1`: 672 s; `O=S(=O)(c1cccs1)N1CCc2nc(-c3ccc(Cl)cc3)ncc2C1`: 1150 s. On to `CCOC(=O)/C(=N\O)C1=CSC2=NNC(C)(C)N12`, for which the RP-LC retention time is 907 s.

`COc1ccc(-c2cc(=O)c3c(O)c(OC)c(OC)cc3o2)cc1O` showed an RP-LC retention time of 906 s. Take `COC(=O)c1ccc(NS(=O)(=O)c2cc3n(c2)CCN(C)C3=O)cc1`: the RP-LC retention time is 682 s. In the case of `O=C(NCc1ccccc1C(F)(F)F)c1cn2nc(Cl)ccc2n1`, the RP-LC retention time amounted to 922 s.

`O=C(O)c1ccc2c(ccn2Cc2ccccc2)c1` returned an RP-LC retention time of 843 s. The result for `Cc1cc(C)cc(NC(=O)N2CCC(n3cnc4ccc(F)cc4c3=O)CC2)c1` reads 861 s; that for `O=C(CC1CCCCN1S(=O)(=O)c1ccc(Cl)cc1)NCc1ccco1` (stereo not given), 852 s. The result for `O=C(COc1ccc(F)cc1)N1CCN(Cc2noc3ccccc23)CC1` reads 726 s. Consider `O=C(NCc1ccc(F)cc1)c1cc(N2CCCC2)n2nccc2n1`, for which the RP-LC retention time was 957 s. Next, `O=C(NCCc1ccccc1)Nc1cccc(-c2nnc3n2CCCC3)c1`: 694 s; `O=C(Cc1ccc(F)cc1)N[C@H](Cc1ccccc1)C(=O)NCc1cscn1`: 741 s; `O=C(Nc1cccc([N+](=O)[O-])c1)c1cc2ccccc2cc1O`: 1100 s.

`CC(C)NC(=O)c1nc2ccccn2c1-c1ccc(Cl)cc1` showed an RP-LC retention time of 846 s. The result for `O=C(Nc1ccc(F)c(Cl)c1)c1cc(=O)c(OCc2ccc(F)cc2)co1` reads 899 s.

For the compound `Cc1cc2c(c(=O)n(-c3ccccc3)c(=O)n2CC(=O)Nc2cccc(C(F)(F)F)c2)n1C`, the RP-LC retention time was found to be 904 s. The result for `CCC(C(=O)NCc1ccccn1)n1c2ccccc2c2cnn(C)c(=O)c21` (stereo not given) reads 634 s. The result for `CC(C)n1ccc(-c2nnc(NC(=O)C3CCCN(S(C)(=O)=O)C3)o2)n1` (stereo not given) reads 609 s; that for `CCOc1ccc(-c2nc(-c3ccc4oc(C)nc4c3)no2)cc1OCC`, 1170 s. Next, `CCOc1cccc(-c2noc(Cn3ncn4nc(-c5cccs5)cc4c3=O)n2)c1`: 1140 s; `O=C(Cn1ncc2c(N3CCN(c4ccccn4)CC3)ncnc21)Nc1ccc(F)c(F)c1`: 572 s. `O=C(c1ccc2c(c1)OCO2)N1CCC(c2ccncc2)CC1` had an RP-LC retention time of 584 s. Next, `CCc1noc(C2(NC(=O)/C=C/c3ccccc3)CCCCC2)n1`: 961 s; `COc1cccc(N2CCN(c3ccnc(SCC(=O)Nc4ccc(Cl)cc4F)n3)CC2)c1`: 941 s. The result for `CCOc1ccccc1CNC(=O)c1nnc(-c2ccc(S(=O)(=O)N(C)C)cc2)o1` reads 945 s. The result for `COc1ccc2c(c1)[C@H]1OCCC[C@H]1C(c1cccc(O)c1)N2` (stereo not given in full) reads 793 s; that for `CCOc1ccc(S(=O)(=O)N2CCCC(C(=O)Nc3ccc(S(N)(=O)=O)cc3)C2)cc1C` (stereo not given), 876 s; that for `COc1ccc2c(c1O)[C@]13CCN(C)[C@H](C2)[C@@H]1CCC(=O)C3`, 622 s.

`COc1ccc(C)cc1NC(=O)NCCNC(=O)c1ccc(NC(=O)C2CCCC2)cc1` registered an RP-LC retention time of 759 s. Next, `c1ccc(-c2nc3ccccn3c2Nc2ccc3c(c2)OCO3)cc1`: 677 s; `CCOc1ccccc1NC(=O)Cn1nnc(C(=O)Nc2cc(Cl)ccc2OC)c1N`: 970 s. The result for `Cc1cccc(NC(=O)NCC(c2cccnc2)c2c[nH]c3ccccc23)c1` (stereo not given) reads 673 s; that for `CCn1cc(C)c(C(=O)O)c1CC(=O)Nc1ccc(Cl)cn1`, 835 s; that for `Cc1cc(F)ccc1NS(=O)(=O)c1cc(-c2[nH]ncc2C(=O)N2CCOCC2)oc1C`, 678 s. In the case of `O=c1c2cc(-c3ccc(Cl)cc3)nn2ccn1Cc1nc(-c2ccccn2)no1`, the RP-LC retention time came to 894 s. As for `CC(C)C(=O)Nc1ccc(N2CCN(c3ccccc3)C2=O)nc1`, the RP-LC retention time was found to be 832 s.

As to `COc1cc(-c2nc3ncccn3c2Nc2ccc(C)c(C)c2)ccc1O`, the RP-LC retention time worked out at 683 s. Next, `Cc1cc(NC(=O)NC2CCN(c3nc4ccccc4n(C)c3=O)CC2)ccc1Br`: 1050 s; `Cc1cccc(-n2c(=O)c3c(cc(C)n3C)n(CC(=O)Nc3ccc(C(F)(F)F)cc3)c2=O)c1`: 968 s. `Cc1nc(-c2csc(S(=O)(=O)N3CCC(C(=O)N4CCCC4)CC3)c2)no1` displayed an RP-LC retention time of 760 s.

As to `CC(C)CNC(=O)N1CCCN(S(C)(=O)=O)CC1`, the RP-LC retention time amounted to 615 s. Next, `O=C(Cn1nc(Cc2ccncc2)c2ccccc2c1=O)Nc1ccc(Cl)cn1`: 618 s; `Clc1ccc(OCc2nn3c(-c4ccccn4)nnc3s2)cc1`: 832 s; `CCc1nc2c(c(=O)n1CC(=O)NC1CCCCC1)CN(Cc1ccccc1)CC2`: 652 s. The result for `O=C(CCCn1c(=O)c2cccn2c2ccc(F)cc21)N1CCN(C(=O)c2ccco2)CC1` reads 745 s. On to `Cc1ccc(N2CCC(NC(=O)Nc3ccc(F)cc3F)C2=O)cc1C` (stereo not given), for which the RP-LC retention time was determined as 903 s. Next, `CNC(=O)c1c(NC(=O)C2COc3ccccc3O2)sc2c1CCCC2` (stereo not given): 1030 s. `CN1C(=O)CS(=O)(=O)C12CCN(C(=O)c1ccc3c(c1)OCO3)CC2`: the RP-LC retention time was determined as 628 s. Next, `Cc1cc(C)c2c(N3CCCC3)nc(C(=O)NCc3cccnc3)nc2n1`: 537 s. The result for `CCCN1CCN(CCCNC(=O)Cn2c3ccccc3c3cnn(C)c(=O)c32)CC1` reads 560 s; that for `COc1ncc(C(=O)NCc2ccc(F)c(Cl)c2)cn1`, 756 s; that for `COc1ccc(S(=O)(=O)N2CCCC(C(=O)NC3CCCCC3)C2)cc1C` (stereo not given), 962 s. The result for `CCn1nc(C)n2cc(S(=O)(=O)NCc3ccc(F)cc3F)cc2c1=O` reads 856 s. Regarding `COc1cc2c(cc1OC)CN(C(=O)C1CCCN1S(=O)(=O)c1ccc(F)cc1)CC2` (stereo not given), the RP-LC retention time was 775 s. With `O=C(COc1ccccc1Cl)Nc1cncc(-c2nc3ccccc3o2)c1`, the RP-LC retention time came out at 995 s. Next, `CC(C)C(=O)Nc1ccc(-n2cnc(C(=O)NCc3ccc(F)cc3F)c2)nc1`: 773 s. The result for `Cc1ccc(CN2C(=O)NC3(CCN(C(=O)c4ccc5c(c4)OCO5)CC3)C2=O)cc1` reads 819 s; that for `O=C(CC1CCN(C(=O)Nc2cccc(Cl)c2)CC1)N1CCN(c2ccccn2)CC1`, 630 s. Next, `O=C(c1cnccn1)N1CCCC1c1nc(-c2cccc(C(F)(F)F)c2)no1` (stereo not given): 798 s. Turning to `COC(=O)c1cc(C)nc2c1c(=O)n(Cc1ccccc1F)c(=O)n2Cc1ccco1`, the RP-LC retention time stood at 1070 s. Next, `CCCCOC(=O)c1ccc(NC(=O)c2c(OCC)cc(=O)n3c2CCCC3)cc1`: 910 s. Next, `Cn1nc2c(c1NC(=O)C1(c3ccc(Cl)cc3)CCCC1)CCC2`: 907 s. The result for `Cc1ccc(-c2ncc(C(=O)Nc3cccc(Br)c3)c(-c3ccncc3)n2)cc1` reads 1050 s. Consider `CCCNS(=O)(=O)c1cc2n(c1)CCCN(C(C)C)C2=O`, for which the RP-LC retention time came out at 678 s.

In the case of `CC(C)c1cc(C(=O)Nc2ccc(F)c(Cl)c2)nc2ccnn12`, the RP-LC retention time worked out at 1210 s. The result for `Cc1nc(-c2csc(S(=O)(=O)N3CCCC(C(=O)NCc4ccc5c(c4)OCO5)C3)c2)no1` (stereo not given) reads 880 s. `Cc1cc(N2CCCCC2)nc(N2CCN(S(=O)(=O)c3ccc(-c4ccccc4)cc3)CC2)n1`: the RP-LC retention time was 935 s. The result for `COc1cccc(-c2noc(Cn3ccnc3C)n2)c1` reads 624 s. Next, `O=C(Nc1cc(-c2ccccn2)no1)c1ccoc1`: 713 s; `COc1ccc(OC(=O)c2cc3c(C)nn(-c4cccc(F)c4)c3s2)cc1`: 1460 s.
